The text below walks through data of patent publication US7776873B2, “Method for treating damage to gastric mucosa” (Yuhan Corporation, priority 2005, dated 2010).

Series [1] has as its system NF-kB (nuclear factor-kappa B). Kind of series: DNA binding activity of NF-kB after H. pylori infection (EMSA). The series is classed as cell-based, human. To be noted: FIG. 5. As for the experimental part:
The DNA binding activity of NF-kB (nuclear factor-kappa B), a redox-sensitive transcription factor known to be associated with H. pylori infection was evaluated using EMSA. Rebamipide (50 μM), known to have cytoprotective properties, was used as a control drug, and revaprazan (25 μM) was used as a test drug. The human gastric epithelial (AGS, KCLB 21739) cells were seeded in culture dishes at 2×10^6 cells/100 mm^2 and cultured in RPMI 1640 (Gibco BRL, Grand Island, N.Y., U.S.A.), supplemented with 100 units/mL penicillin, 100 ug/mL streptomycin, and 10% FBS (Fetal Bovine Serum). […] The culture media were removed and the cells were twice washed with PBS (137 mM NaCl, 2.7 mM KCl, 10 mM Na2HPO4, and 2 mM KH2PO4). For inoculation, H. pylori (ATCC 43504) cultures were resuspended in PBS and cocultured with AGS cells at a final concentration of 5×10^8 CFU/ml at 37° C. for one hour. The nuclear fractions for EMSA were prepared using the NE-PER Nuclear and the Cytoplasmic Extraction Kit (Pierce, Rockford, Ill., U.S.A.). Sequences of double-stranded oligonucleotides used for EMSA of NF-kB were as follows; [NT], and the oligonucleotides were labeled with a Biotin 3' End DNA Labeling Kit (Pierce, Rockford, Ill., U.S.A.). The EMSA was performed with a Light Shift Chemiluminescent EMSA Kit (Pierce, Rockford, Ill., U.S.A.).
(Mobility shift assays separate free from complexed probe on a gel.)

Series [2] concerns VEGF (Vascular Endothelial Growth Factor). Kind of series: Expression level of VEGF in sulindac-treated cells (RT-PCR). In kind it is cell-based, rat. To be noted: RGM-1 cells, revaprazan 25 uM (rebamipide 50 uM) 16 hours, then sulindac 100 uM 8 hours, FIG. 6. As for the experimental part:
(§1) In order to evaluate cytoprotective effect of revaprazan, 100 μM of sulindac belonging to NSAIDs was added to the rat cells, and the expression levels of pro-angiogenic growth factors, VEGF (Vascular Endothelial Growth Factor), interleukin-8 (IL-8), and COX-2 (cyclooxygenase-2) were measured. Rebamipide (50 μM), known to have cytoprotective properties, was used as a control drug and revaprazan (25 μM) was used as a test drug. The rat gastric mucosal (RGM-1, RIKEN cell bank, Japan) cells were seeded in culture dishes at 2×10^6 cells/100 mm^2 and cultured in RPMI 1640 (Gibco BRL, Grand Island, N.Y., U.S.A.), supplemented with 100 units/mL penicillin, 100 ug/mL streptomycin, and 10% FBS (Fetal Bovine Serum). […] The culture media were removed and the cells were washed three times with PBS (137 mM NaCl, 2.7 mM KCl, 10 mM Na2HPO4, and 2 mM KH2PO4). A solution of sulindac in DMSO was added to the cells to reach a final concentration of 100 uM and the cells were cultured at 37° C. for 8 hours. The cultured cells were collected by centrifugation at 23° C. at 3000 rpm for 3 minutes, and the total RNA was isolated from the cells using the TRIzol reagent (Life technologies, Milan, Italy). Sterilized RNase-free water was added to 2 μg of the total RNA and 1 μl of 10 pmol/λ oligo dT to obtain reaction solutions with a volume of 34 μl. […]

The subject of series [3] is human gastric epithelial (AGS) cells infected with H. pylori (ATCC 43504). Kind of series: Incidence of H. pylori-induced cell death (MTT assay-1). In kind it is cell-based. The note with it: FIG. 1. As for the experimental part: In order to determine cytoprotective properties of revaprazan against H. pylori infection, gastric mucosal cells were pretreated with revaprazan and rebamipide prior to H. pylori infection, and the incidence of cell death was measured. Rebamipide, known to have cytoprotective properties, was used as a control drug.
The human gastric epithelial (AGS, KCLB 21739) cells were seeded onto 96-well plate at 5×10^4 cells/ml and cultured in RPMI 1640 (Gibco BRL, Grand Island, N.Y., U.S.A.), supplemented with 100 units/mL penicillin, 100 ug/mL streptomycin, and 10% FBS (Fetal Bovine Serum). Revaprazan and rebamipide, dissolved in sterilized water, were added to AGS cells to reach a final concentration of 50 uM and the cells were incubated at 37° C. for 16 hours. To remove RPMI 1640 media, the plate was centrifuged at 24° C., 3000 rpm for 5 minutes and washed three times with PBS (137 mM NaCl, 2.7 mM KCl, 10 mM Na2HPO4, and 2 mM KH2PO4). For inoculation, H. pylori (ATCC 43504) cultures were resuspended in PBS and cocultured with AGS cells at a final concentration of 5×10^8 CFU/ml. After 48 hours of incubation at 37° C., the culture was centrifuged at 24° C., 3000 rpm for 5 minutes to remove the culture medium, i.e., RPMI 1640, and then total viable cell numbers were assessed by MTT (3-[4,5-dimethylthiazol-2-yl]-2,5-diphenyl tetrazolim bromide) assay method. 1 mg/ml of an MTT solution prepared by dissolving MTT (Amresco, Ohio, U.S.A.) in PBS (137 mM NaCl, 2.7 mM KCl, 10 mM Na2HPO4, and 2 mM KH2PO4) was added to each well (50 μl/well), followed by incubation at 37° C. for 4 hours. The supernatant was then removed by centrifugation at 24° C., 3000 rpm for 5 minutes and the formazan grains formed by the viable cells were dissolved in 99.5% dimethyl sulfoxide (DMSO) (Kanto, Tokyo, Japan) (50 μl/well), and the optical intensity was measured at 540 nm using an ELISA reader (TECAN, Maennedorf, Switzerland).
Background: Tetrazolium assays rely on reduction of a dye to a coloured formazan, in cell work by metabolically active cells.

Series [4] deals with rat gastric mucosal (RGM-1) cells. Kind of series: Incidence of ethanol-induced cell death (MTT assay-2). In kind it is cell-based. The note with it: FIG. 2.
Method: The rat gastric mucosal (RGM-1, RIKEN cell bank, Japan) cells were seeded onto 96-well plate at 5×10^4 cells/ml and cultured in DMEM-F12 (Gibco BRL, Grand Island, N.Y., U.S.A.), supplemented with 100 units/mL penicillin, 100 ug/mL streptomycin, and 10% FBS (Fetal Bovine Serum). […] To remove DMEM-F12 media, the plate was centrifuged at 24° C., 3000 rpm for 5 minutes and washed three times with PBS (137 mM NaCl, 2.7 mM KCl, 10 mM Na2HPO4, and 2 mM KH2PO4). Then, ethanol-containing media (200 mM ethanol-containing DMEM-F12, supplemented with 100 units/mL penicillin, 100 ug/mL streptomycin, and 10% FBS) was added to the cells, and the cells were cultured at 37° C. for 16 hours. After the incubation, the culture was centrifuged at 24° C., 3000 rpm for 5 minutes to remove the culture medium and then total viable cell numbers were assessed by MTT (3-[4,5-dimethylthiazol-2-yl]-2,5-diphenyl tetrazolim bromide) assay method. 1 mg/ml of an MTT solution prepared by dissolving MTT (Amresco, Ohio, U.S.A.) in PBS (137 mM NaCl, 2.7 mM KCl, 10 mM Na2HPO4, and 2 mM KH2PO4) was added to each well (50 μl/well), followed by incubation at 37° C. for 4 hours. The supernatant was then removed by centrifugation at 24° C., 3000 rpm for 5 minutes and the formazan grains formed by the viable cells were dissolved in 99.5% dimethylsulfoxide (DMSO) (Kanto, Tokyo, Japan) (50 μl/well), and the optical intensity was measured at 540 nm using an ELISA reader (TECAN, Maennedorf, Switzerland).
Another series relates to COX-2 (cyclooxygenase-2). In words: Expression level of COX-2 in sulindac-treated cells (RT-PCR). The series is classed as cell-based, rat. To be noted: RGM-1 cells, revaprazan 25 uM (rebamipide 50 uM) 16 hours, then sulindac 100 uM 8 hours, FIG. 6. As for the experimental part: as §1

Turning to `Cc1nc(Nc2ccc(F)cc2)nc(N2CCc3ccccc3C2C)c1C` (centres unmarked) [revaprazan, 5,6-dimethyl-2-(4-fluorophenylamino)-4-(1-methyl-1,2,3,4-tetrahydroisoquinolin-2-yl)pyrimidine], the “NF-kB activity (DNA binding)” value in series [1] (AGS cells, 25 uM pretreatment for 16 hours, then H. pylori one hour) is listed as “significantly inhibited”. Besides, in series [1] (revaprazan 25 uM vs rebamipide 50 uM), the “cytoprotective effect (NF-kB inhibition) compared with rebamipide” value was “equal to or greater than rebamipide”. For the same compound, the “expression level of VEGF versus rebamipide-sulindac treatment group” value in series [2] was “much higher”. Further, in series [3] (50 uM each), the “cytoprotective effect against H. pylori-induced cytotoxicity compared with rebamipide” value is recorded as “equal to or greater than rebamipide”. For the same compound, in series [3] (50 uM pretreatment for 16 hours, then 48-hour H. pylori infection), the “gastric mucosal cytotoxicity by H. pylori infection” value is “significantly reduced”. The “cytoprotective effect against ethanol-induced cytotoxicity compared with rebamipide” value in series [4] (50 uM each) is on record as “equal to or greater than rebamipide”. Also, the “ethanol-induced gastric mucosal cytotoxicity” value in series [4] (50 uM pretreatment for 16 hours, then 200 mM ethanol for 16 hours) is “significantly reduced”. In the series with COX-2 (cyclooxygenase-2), the “expression level of COX-2 versus rebamipide-sulindac treatment group” value was “much higher”.
